We go through eight molecules from patent US20220088199A1, “METHOD FOR PROTECTING GLYCEROL ALKYL ETHERS FROM OXIDATION” (SACHEM, INC., priority 2016, published 2022).

The nature of series [1]: Stability testing of SASKINE50 blends at 50° C., analysed by GC (Example 2). Particulars: for loss of SASKINE50 (3-[(2-ethylhexyl)oxy]-1,2-propanediol) assay on storage: one month, 725 ppm antioxidant in 99.6% pure SASKINE50, FIG. 3.
Description: The blend is analyzed via gas chromatography (GC) prior to stability testing. Following the analysis result, the blend is placed under atmospheric pressure and under an inert gas into individual sample bottles as not to disturb the testing conditions during sampling. The test conditions are 50° C. for one month. […] These test conditions are considered to simulate a shelf-life of approximately one year at room temperature.
The samples are dissolved in isopropyl alcohol at a concentration of 10% for the GC analysis. The following GC conditions are used:
Column: • Material: fused silica WCOT • Length: 30 m • Internal diameter: 0.32 mm • Stationary phase: DB1701 • Film thickness: 1 μm • Gas regulation: Carrier gas: hydrogen • Make-up gas: helium • Temperatures: Detector: 300° C. • Injector: 275° C. • Start temperature: 115° C. • Warm up speed 1: 8° C./minute • End temperature: 210° C. • Warm up speed 2: 15° C./minute • End temperature: 275° C.
Detection: Type detector: FID
In series [2] the test system is microbial strain (bacteria, yeasts, molds). Description: Minimum inhibitory concentration (MIC) determination. It counts as cell-based. The following applies: FIG. 7; compared to plain material and Sensiva. On the procedure: As discussed in the background, the purpose of the glyceryl ether compounds such as SASKINE50™ and SASKINE80™ is as a preservative and antimicrobial, especially in cosmetics and pharmaceutical preparations. To test the SASKINE50™ and SASKINE80™, minimum inhibitory concentrations are determined for SASKINE50™ alone, SASKINE50™ with naringenin, SASKINE80™ alone, and SASKINE80™ with naringenin, and, for comparison, Sensiva® SC 50, which contains 3-[(2-ethylhexyl)oxy]-1,2-propanediol and synthetic alpha-tocopherol, which is commercially available from Schülke & Mayr Benelux B.V., 2032 HA-Haarlem, Netherlands. The determination of the minimal inhibitory concentration (MIC) is carried out according to the standard procedure described below.
The purpose of the MIC study is to find a minimum concentration of the test item which will enable to inhibit in vitro the growth of a microbial strain. The MIC characterizes the bacteriostatic or fungistatic effect of a product.
In the MIC test, the product is diluted according to a geometric progression of reason 2 over a range of at least 5 dilutions starting from the maximum concentration to be tested specified by the customer. In each tube of the dilution range, a cultured medium double concentered is included with the strains to be tested. […]

Series [3] can be described thus: Stability testing of SASKINE80 blend at 50° C., analysed by GC (Example 3). It counts as physicochemical. On the procedure:
In this example, SACHEM's SASKINE80™ is used as basis for the stability testing of […] within the scope of the present invention, i.e., naringenin. A pre-defined blend containing SASKINE80™ and this anti-oxidant compound in accordance with the present invention are prepared, the blend containing 725 ppm of the naringenin in 99.6% pure SASKINE80™ (3-[(n-octyl)oxy]-1,2-propanediol). […] The test conditions are 50° C. for two weeks and four weeks.

Series [4] can be described thus: Stability testing at room temperature: formation of formaldehyde and peroxides (Example 1). It counts as physicochemical. Particulars: zero time. An excerpt:
The thus-prepared compositions are subjected to stability testing, under which formation of formaldehyde and peroxides and determined as indicators of stability, in which higher amounts of formaldehyde and/or peroxides are deemed to show lower stability of the mixture. […] This sample is obtained commercially from Schulke GmbH. The tests for all samples determine the formaldehyde and peroxide contents of the test sample when stored at room temperature (RT), for periods of 0, 2, 4, 6, 8, 10 and 12 months. The 0 month sample is the freshly prepared composition.

The test system of series [5] is human reconstructed epidermis (SkinEthic model). Description: In vitro skin irritation study, SkinEthic model, OECD 439. It counts as cell-based. Particulars: pure product applied 42 minutes, 42 hours incubation; MTT viability and IL1-α; FIG. 8. On the procedure:
As noted herein, the inventive compositions are intended for use in cosmetic and pharmaceutical compositions. One important criteria for such products is that there be no skin irritation, when the compositions are applied to the skin of the person using the cosmetic or pharmaceutical composition. To test the compositions of the present invention, a non-animal test is conducted, which is an in vitro skin irritation study of the compositions on human reconstructed epidermis known as the SkinEthic model, OECD 439. […] After the pure product has been applied to the epidermis for 42 minutes and they have been incubated for 42 hours post-treatment, cell viability is determined by measuring mitochondrial succinate dehydrogenase activity in living cells. […] A spectrophotometer is used to read the results after the crystals have been dissolved. The measured absorbances are proportional to the number of living cells. In addition, release of inflammation (IL1-α) mediators is measured by colorimeter if cell viability is over 50%. […] Cytotoxicity: absorbance is measured three times at 540 nm. The results are expressed as a viability percentage compared to a negative control: […]
IL1-α titration: IL1-α concentrations in the culture media are evaluated using the instructions on the titration kit and are expressed as pg/ml. […]

Consider `O=C1C[C@@H](c2ccc(O)cc2)Oc2cc(O)cc(O)c21` [naringenin], for which the “loss of SASKINE50 (3-[(2-ethylhexyl)oxy]-1,2-propanediol) assay on storage” value (“loss of SASKINE50” below) in series [1] is reported as “almost no loss”.
The same measure, in the same setting: the result for `O.O=c1c(O)c(-c2ccc(O)cc2O)oc2cc(O)cc(O)c12` [norinhydrate] reads “almost no loss”; that for `O=c1c(O)c(-c2ccc(O)c(O)c2)oc2cc(O)cc(O)c12` [quercetin], “almost no loss”.
Turning to `C[C@@H]1O[C@@H](O[C@H]2[C@H](Oc3cc(O)c4c(c3)O[C@H](c3ccc(O)cc3)CC4=O)O[C@H](CO)[C@@H](O)[C@@H]2O)[C@H](O)[C@H](O)[C@H]1O` [naringin hydrate], the “loss of SASKINE50” value in series [1] is recorded as “performed less well”.
The same measure, in the same setting: the result for `COc1cc(O)c2c(=O)c(O)c(-c3ccc(O)c(O)c3)oc2c1` [rhamnetin] reads “almost no loss”.
For the molecule `CCCCCCCCOCC(O)CO` (centres unmarked) [SASKINE80™, 3-[(n-octyl)oxy]-1,2-propanediol], the “minimum inhibitory concentration (anti-microbial growth)” value in series [2] was “even better performance”. Further, the “increase in low boiling compounds” value in series [3] (two and four weeks, FIG. 5b) is listed as “notable increase”. Moreover, the SASKINE80 assay decrease result in series [3] (two weeks and four weeks, FIG. 5a) was “about 0.40%”.
Regarding `COc1ccc(-c2cc(=O)c3c(O)cc(O)cc3o2)cc1O` [diosmetin], the “loss of SASKINE50” value in series [1] is recorded as “almost no loss”.
`CCCCC(CC)COCC(O)CO` (centres unmarked) [SASKINE50™, 3-[(2-ethylhexyl)oxy]-1,2-propanediol]: the “increase in volatile degradation products (low boiling compounds)” value in series [1] (2 weeks and 4 weeks, 725 ppm antioxidant in SASKINE50, FIG. 4) is given as “significant amount of breakdown products”. Moreover, the “loss of SASKINE50” value in series [1] was “significant loss”. The peroxide present result in series [4] (Example 1, FIG. 1) was “measurable, non-zero amount”. Moreover, the formaldehyde present entry in series [4] (Example 1, FIG. 2) was “measurable, non-zero amount”. In series [5], the skin irritation classification entry is “irritant of category 1 or 2”.
